Experimental findings from patent US12492403B2, “Aptamers and the use thereof in the treatment of cancer” (FUNDACIÓN PARA LA INVESTIGACIÓN BIOMÉDICA DEL HOSPITAL …, priority 2018, dated 2025) are described below.

Common to all, as to format: cell-based, human
In data set [1] the test system is MCF7, MDA-MB-231, and MDAMB-468 cells. Put plainly: Aptamer penetration into cells (Alexa-488 fluorescence microscopy). The conditions noted are these: Alexa fluor 488-conjugated aptamer 250 nM added to medium, 24 hours, compared with lipofectamine transfection. As to the method: FIGS. 16A & 16B. Study of aptamer apMNKQ2 penetration into cells. MCF7, MDA-MB-231, and MDAMB-468 cells were seeded in 24-well plates with a cover glass at a density of 3×10^4 cells/well, with the transfection/addition of apMNKQ2 labeled with Alexa-488 at 250 nM at 24 hours. Twenty-four hours after transfection, the cells were fixed, stained with Hoechst, and mounted on slides with Prolong™ mounting medium. The number refers to the intensity of the aptamer measured with the imageJ program and expressed in arbitrary units.
To analyze cell penetration by apMNKQ2, 3×10^4 cells/well were seeded on cover glasses and the structured, Alexa fluor 488-conjugated aptamer at 250 nM was added to the cell medium at 24 hours. In parallel, the aptamer was transfected with lipofectamine at the same concentration. After 24 hours, the cells were fixed and stained with Hoechst.

Data set [2] has as its system MDA-MB-231 cells. Put plainly: Colony formation assay. Conditions: MDA-MB-231, 400 nM, colonies quantified 9-12 days after seeding. As to the method: (§1) FIGS. 12A & 12B. Effect of apMNKQ2 on cell clonogenicity. MCF7, MDA-MB-231, and MDA-MB-468 cells were seeded in 24-well plates at a density of 3×10^4 cells/well and transfected at 24 hours with apMNKQ2 at the previously established working concentrations (FIG. 12A). After 24 hours, the cells were collected, counted, and seeded in 6-well plates with 1000 cells/well for MCF7 and MDA-MB-231 and with 5000 cells/well for MDA-MB-468 (FIG. 12B). The boxes represent the mean±the maximum and minimum of 4-5 independent experiments (*p<0.05 and **p<0.01 with respect to the control aptamer AT).
(§2) To perform these assays, 3×10^4 cells/well were seeded in 24-well plates with every 2 wells being considered an experimental point. At 16-24 hours, the cells were transfected with apMNKQ2 or the control aptamer. At 16-24 hours post-transfection, the cells of every two wells were pooled, resuspended in the corresponding medium, counted, and after performing the suitable dilutions, reseeded 1×10^3 or 5×10^3 cells/well in duplicate in 6-well plates. These plates were left in the incubator with a moisture-saturated environment at 37° C. and 5% CO2/[…] for 8-9 days. After this time, the colonies were fixed with methanol (Merck, Germany) for 10 minutes, stained with 0.02% giemsa (Sigma-Aldrich, USA) for 30 minutes, washed with water to eliminate the remaining dye, and left to dry at room temperature. To count the colonies, a colony counter pen (Heathrow Scientific® LLC, United Kingdom) and a magnifying glass (1.75×) (Bel-Art Scienceware, USA) were used. The results were expressed in number of colonies and normalized in percentage with respect to the control.
(§3) For these assays, 1000 cells/well in 6-well plates had previously been established for the MCF7 and MDA-MB-231 lines, however, the PE of the MDA-MB-468 cells was lower (11.5±5.3%), so 5000 cells were seeded. The cells were transfected with apMNKQ2 and the control AT, and collected and reseeded at 24 hours to perform the colony formation assay. The colonies were quantified 9-12 days after seeding. […]

Data set [3] has as its system MCF7 cells. Put plainly: Colony formation assay. The conditions noted are these: MCF7, 150 nM, colonies quantified 9-12 days after seeding. As for the experimental part:
as §1, §2, §3

Data set [4] relates to MDA-MB-468 cells. Put plainly: Colony formation assay. The conditions noted are these: MDA-MB-468, 50 nM, colonies quantified 9-12 days after seeding. As to the method: as §1, §2, §3
For data set [5], the system named is MDA-MB-231 cells. The data set can be described thus: Transwell invasion assay with Matrigel. The conditions noted are these: MDA-MB-231, 400 nM. As to the method:
(§4) FIGS. 13A, 13B and 13C. Effect of aptamer apMNKQ2 on the migration and invasion of breast cell lines. The three lines of study were seeded in 6-well plates at a density of 2.5×10^5 cells/well and transfected at 24 hours with apMNKQ2 at the established working concentrations. The cell lines were deprived of serum after 6 hours and collected and re-seeded (4×10^4 cells/well) after 24 hours in a transwell […], in order to perform migration and invasion assays, respectively. At 24 hours, the membranes of the transwell are stained with Hoechst and cells that have gone through the membranes are quantified using fluorescence microscopy (FIG. 13A). The boxes (FIGS. 13B and 13C) represent the mean±the maximum and minimum of 4-5 independent experiments (*p<0.05, **p<0.01, and ***p<0.001 with respect to the control aptamer AT).
(§5) Cell migration and invasion assays were performed using transwell (Corning, USA). […] After that time, they were collected, counted, and reseeded 4×10^4 cells in 300 μl of a serum-free complete medium inside the transwell (migration) or a transwell on which a layer of 100 μL of Matrigel (Corning, USA) (invasion) had previously been polymerized. […] Finally, two washes in PBS were performed, and 5 photographs of each membrane of the transwell were taken using a fluorescence microscope (Olympus IX70). The number of cells was analyzed using the imageJ program. […]

Data set [6] relates to MDA-MB-468 cells. Put plainly: Transwell invasion assay with Matrigel. Conditions: MDA-MB-468, 50 nM. As to the method: as §4, §5
Data set [7] relates to eIF4E. The data set can be described thus: Western blot of phosphorylation, combined therapy study. Conditions: MDA-MB-231 and MCF7 cells, 24 hours. As to the method:
(§6) FIG. 22A & 22B. Combined therapy studies of apMNKQ2 and everolimus. […] The different antibodies used are indicated.
(§7) Seventy-two hours after treatment, MTT activity was measured.

Data set [8] deals with ribosomal protein S6. The description is as above. The conditions noted are these: MDA-MB-231 and MCF7 cells, 24 hours. As for the experimental part:
as §6, §7

Data set [9] has as its system AKT. The description is as above. The conditions noted are these: MDA-MB-231 and MCF7 cells, 24 hours. As for the experimental part:
as §6, §7

For “5′TGGGGTGGGCGGGCGGGGGTGGGGGTGGT-3′ (DNA, backbone and methylation of C not given here; further chemistry not fully specified) [apMNKQ2]”, in data set [1], the “penetration into cells without transfectant” value is reported as “capable of only entering the cells, although with a lower intensity”. In addition, the “inhibition in colony formation with respect to control aptamer AT” value in data set [2], in [3] and in [4] was “statistically significant” each time. The “invasion (transwell with Matrigel)” value in data set [5] and in data set [6] was “significant reduction of invasion” in each case. The “phosphorylation of eIF4E” value in [7] was “no effect”. In addition, the “phosphorylation of ribosomal protein S6 (dependent on mTOR activity)” value in data set [8] was “also affects this phosphorylation”. Also, the “phosphorylation of AKT” value in [9] is “no effect”.
